According to ChEMBL document CHEMBL3137667, “[Drug-induced liver injury; fourteenth updated edition of the bibliographic database of liver injuries and related drugs]” (Gastroenterol Clin Biol, 2004):

Experiments:
[1] = Highest frequency of moderate liver toxicity observed during clinical trials, expressed as a percentage. [column '% BIOL' in source]; settings: human
[2] = Highest frequency of acute liver toxicity observed during clinical trials, expressed as a percentage. [column '% AIGUE' in source]; settings: human
[3] = Proposed mechanism(s) of liver damage. [column 'MEC' in source]; settings: human
[4] = human, serum
[5] = human, serum; remark: listed apart in the source
[6] = human
[7] = human; remark: listed apart in the source
[8] = human; remark: listed apart in the source
[9] = human, serum, 4383 h
[10] = human; remark: listed apart in the source
[11] = human; remark: listed apart in the source
[12] = human; remark: listed apart in the source
[13] = human; remark: listed apart in the source
[14] = human; remark: listed apart in the source
[15] = human; remark: listed apart in the source
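Wherever Hepatotoxicity (association with vascular disease) is given: count of indexed literature references reporting vascular liver injury in humans, e.g. peliosis hepatitis, hepatic veno-occlusive disease or Budd-Chiari syndrome.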
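Wherever Hepatotoxicity (benign tumour) is given: value is a count of indexed literature references citing a benign tumour confirmed by histopathology.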
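Wherever Hepatotoxicity (choleostasis) is given: human cholestatic liver injury, shown by histopathology or by peak ALT or AST elevation over alkaline phosphatase ratio below 2, value counts indexed literature reports.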
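Wherever Hepatotoxicity (chronic liver disease) is given: chronic liver injury confirmed by histopathology or persistently raised serum aminotransferase activity beyond 6 months, value given as the count of indexed literature references.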
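Wherever Hepatotoxicity (cirrhosis) is given: value is a count of indexed literature references reporting cirrhosis confirmed by histopathology.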
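Wherever Hepatotoxicity (cytolytic) is given: human cytolytic liver injury, shown by histopathology or by a ratio above 5 of peak ALT or AST elevation to alkaline phosphatase elevation, value counts indexed references.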
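Wherever Hepatotoxicity (granulomatous hepatitis) is given: value is a count of indexed literature references reporting granulomatous liver disease confirmed by histopathology.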
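Wherever Hepatotoxicity (malignant tumour) is given: malignant tumour confirmed by histopathology, value gives the count of indexed literature references reporting it.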
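Wherever Hepatotoxicity (severe hepatitis) is given: human clinical data: severe hepatitis, meaning potentially life-threatening liver failure or clinically observed cases, the value counts how many indexed literature references report it.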
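Wherever Hepatotoxicity (steatosis) is given: steatosis confirmed by histopathology, value is the count of indexed references.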

Compound: C[C@@](O)(/C=C/[C@H]1CC=CC(=O)O1)[C@@H](C[C@@H](O)\C=C/C=C\C=C\CO)OP(=O)(O)O [FOSTRIECIN]
- Hepatotoxicity (moderate) [1]: 5%
- Hepatotoxicity (acute) [2]: 0%
- Hepatotoxicity (mechanism) [3]: Dose-dependant
- Hepatotoxicity (moderate) [4]: 1
- Hepatotoxicity (acute) [5]: 0
- Hepatotoxicity (cytolytic) [6]: 0
- Hepatotoxicity (choleostasis) [7]: 0
- Hepatotoxicity (severe hepatitis) [8]: 0
- Hepatotoxicity (chronic liver disease) [9]: 0
- Hepatotoxicity (cirrhosis) [10]: 0
- Hepatotoxicity (granulomatous hepatitis) [11]: 0
- Hepatotoxicity (association with vascular disease) [12]: 0
- Hepatotoxicity (steatosis) [13]: 0
- Hepatotoxicity (malignant tumour) [14]: 0
- Hepatotoxicity (benign tumour) [15]: 0

Compound: INTERFERON ALFA-N1
- Hepatotoxicity (moderate) [1]: 42%
- Hepatotoxicity (acute) [2]: 0%
- Hepatotoxicity (mechanism) [3]: Dose-dependant
- Hepatotoxicity (moderate) [4]: 15
- Hepatotoxicity (acute) [5]: 0
- Hepatotoxicity (cytolytic) [6]: 0
- Hepatotoxicity (choleostasis) [7]: 0
- Hepatotoxicity (severe hepatitis) [8]: 0
- Hepatotoxicity (chronic liver disease) [9]: 0
- Hepatotoxicity (cirrhosis) [10]: 0
- Hepatotoxicity (granulomatous hepatitis) [11]: 0
- Hepatotoxicity (association with vascular disease) [12]: 0
- Hepatotoxicity (steatosis) [13]: 0
- Hepatotoxicity (malignant tumour) [14]: 0
- Hepatotoxicity (benign tumour) [15]: 0

Compound: CO[C@@H]1[C@@H](N)[C@@H](O[C@H]2[C@H](Oc3cccc4c(O)c5c(=O)oc6ccc(C)c7c(=O)oc(c34)c5c67)O[C@H](C)[C@H](O)[C@]2(C)O)O[C@H](C)[C@@H]1O [ELSAMITRUCIN]
- Hepatotoxicity (moderate) [1]: 13%
- Hepatotoxicity (acute) [2]: 1.6%
- Hepatotoxicity (mechanism) [3]: Dose-dependant
- Hepatotoxicity (moderate) [4]: 4
- Hepatotoxicity (acute) [5]: 2
- Hepatotoxicity (cytolytic) [6]: 0
- Hepatotoxicity (choleostasis) [7]: 0
- Hepatotoxicity (severe hepatitis) [8]: 1
- Hepatotoxicity (chronic liver disease) [9]: 0
- Hepatotoxicity (cirrhosis) [10]: 0
- Hepatotoxicity (granulomatous hepatitis) [11]: 0
- Hepatotoxicity (association with vascular disease) [12]: 0
- Hepatotoxicity (steatosis) [13]: 0
- Hepatotoxicity (malignant tumour) [14]: 0
- Hepatotoxicity (benign tumour) [15]: 0

Compound: CC(Cc1ccccc1)NCCC(c1ccccc1)c1ccccc1 (stereo not given) [PRENYLAMINE]
- Hepatotoxicity (moderate) [1]: 7.7%
- Hepatotoxicity (acute) [2]: 0%
- Hepatotoxicity (mechanism) [3]: Dose-dependant
- Hepatotoxicity (moderate) [4]: 1
- Hepatotoxicity (acute) [5]: 0
- Hepatotoxicity (cytolytic) [6]: 0
- Hepatotoxicity (choleostasis) [7]: 0
- Hepatotoxicity (severe hepatitis) [8]: 0
- Hepatotoxicity (chronic liver disease) [9]: 0
- Hepatotoxicity (cirrhosis) [10]: 0
- Hepatotoxicity (granulomatous hepatitis) [11]: 0
- Hepatotoxicity (association with vascular disease) [12]: 0
- Hepatotoxicity (steatosis) [13]: 0
- Hepatotoxicity (malignant tumour) [14]: 0
- Hepatotoxicity (benign tumour) [15]: 0

Compound: CN1[C@@H]2CC[C@H]1C[C@@H](OC(=O)c1c[nH]c3ccccc13)C2 [TROPISETRON]
- Hepatotoxicity (moderate) [1]: 40.9%
- Hepatotoxicity (acute) [2]: 4.5%
- Hepatotoxicity (mechanism) [3]: Dose-dependant
- Hepatotoxicity (moderate) [4]: 3
- Hepatotoxicity (acute) [5]: 1
- Hepatotoxicity (cytolytic) [6]: 1
- Hepatotoxicity (choleostasis) [7]: 0
- Hepatotoxicity (severe hepatitis) [8]: 0
- Hepatotoxicity (chronic liver disease) [9]: 0
- Hepatotoxicity (cirrhosis) [10]: 0
- Hepatotoxicity (granulomatous hepatitis) [11]: 0
- Hepatotoxicity (association with vascular disease) [12]: 0
- Hepatotoxicity (steatosis) [13]: 0
- Hepatotoxicity (malignant tumour) [14]: 0
- Hepatotoxicity (benign tumour) [15]: 0

Compound: CS(=O)(=O)c1ccc([C@@H](O)[C@@H](CO)NC(=O)C(Cl)Cl)cc1 [THIAMPHENICOL]
- Hepatotoxicity (moderate) [1]: 0%
- Hepatotoxicity (acute) [2]: 0%
- Hepatotoxicity (mechanism) [3]: Allergic
- Hepatotoxicity (moderate) [4]: 0
- Hepatotoxicity (acute) [5]: 1
- Hepatotoxicity (cytolytic) [6]: 0
- Hepatotoxicity (choleostasis) [7]: 0
- Hepatotoxicity (severe hepatitis) [8]: 0
- Hepatotoxicity (chronic liver disease) [9]: 0
- Hepatotoxicity (cirrhosis) [10]: 0
- Hepatotoxicity (granulomatous hepatitis) [11]: 0
- Hepatotoxicity (association with vascular disease) [12]: 0
- Hepatotoxicity (steatosis) [13]: 0
- Hepatotoxicity (malignant tumour) [14]: 0
- Hepatotoxicity (benign tumour) [15]: 0

Compound: COc1ccc(OC)c(Cc2cnc3nc(N)nc(N)c3c2C)c1 [PIRITREXIM]
- Hepatotoxicity (moderate) [1]: 12.1%
- Hepatotoxicity (acute) [2]: 0%
- Hepatotoxicity (mechanism) [3]: Dose-dependant
- Hepatotoxicity (moderate) [4]: 7
- Hepatotoxicity (acute) [5]: 0
- Hepatotoxicity (cytolytic) [6]: 0
- Hepatotoxicity (choleostasis) [7]: 0
- Hepatotoxicity (severe hepatitis) [8]: 0
- Hepatotoxicity (chronic liver disease) [9]: 0
- Hepatotoxicity (cirrhosis) [10]: 0
- Hepatotoxicity (granulomatous hepatitis) [11]: 0
- Hepatotoxicity (association with vascular disease) [12]: 0
- Hepatotoxicity (steatosis) [13]: 0
- Hepatotoxicity (malignant tumour) [14]: 0
- Hepatotoxicity (benign tumour) [15]: 0

Compound: PEGASPARGASE
- Hepatotoxicity (moderate) [1]: 0%
- Hepatotoxicity (acute) [2]: 7.7%
- Hepatotoxicity (mechanism) [3]: Dose-dependant
- Hepatotoxicity (moderate) [4]: 0
- Hepatotoxicity (acute) [5]: 2
- Hepatotoxicity (cytolytic) [6]: 0
- Hepatotoxicity (choleostasis) [7]: 0
- Hepatotoxicity (severe hepatitis) [8]: 0
- Hepatotoxicity (chronic liver disease) [9]: 0
- Hepatotoxicity (cirrhosis) [10]: 0
- Hepatotoxicity (granulomatous hepatitis) [11]: 0
- Hepatotoxicity (association with vascular disease) [12]: 0
- Hepatotoxicity (steatosis) [13]: 0
- Hepatotoxicity (malignant tumour) [14]: 0
- Hepatotoxicity (benign tumour) [15]: 0

Compound: O[C@H]1[C@H]2[C@H](O)CCCN2C[C@H]1O [TRIDOLGOSIR]
- Hepatotoxicity (moderate) [1]: 52.6%
- Hepatotoxicity (acute) [2]: 10.5%
- Hepatotoxicity (mechanism) [3]: Dose-dependant
- Hepatotoxicity (moderate) [4]: 2
- Hepatotoxicity (acute) [5]: 1
- Hepatotoxicity (cytolytic) [6]: 0
- Hepatotoxicity (choleostasis) [7]: 0
- Hepatotoxicity (severe hepatitis) [8]: 0
- Hepatotoxicity (chronic liver disease) [9]: 0
- Hepatotoxicity (cirrhosis) [10]: 0
- Hepatotoxicity (granulomatous hepatitis) [11]: 0
- Hepatotoxicity (association with vascular disease) [12]: 0
- Hepatotoxicity (steatosis) [13]: 0
- Hepatotoxicity (malignant tumour) [14]: 0
- Hepatotoxicity (benign tumour) [15]: 0

Compound: Nc1nc2[nH]cc(CCc3ccc(C(=O)N[C@@H](CCC(=O)O)C(=O)O)cc3)c2c(=O)[nH]1 [PEMETREXED]
- Hepatotoxicity (moderate) [1]: 100%
- Hepatotoxicity (acute) [2]: 0%
- Hepatotoxicity (mechanism) [3]: Dose-dependant
- Hepatotoxicity (moderate) [4]: 1
- Hepatotoxicity (acute) [5]: 0
- Hepatotoxicity (cytolytic) [6]: 0
- Hepatotoxicity (choleostasis) [7]: 0
- Hepatotoxicity (severe hepatitis) [8]: 0
- Hepatotoxicity (chronic liver disease) [9]: 0
- Hepatotoxicity (cirrhosis) [10]: 0
- Hepatotoxicity (granulomatous hepatitis) [11]: 0
- Hepatotoxicity (association with vascular disease) [12]: 0
- Hepatotoxicity (steatosis) [13]: 0
- Hepatotoxicity (malignant tumour) [14]: 0
- Hepatotoxicity (benign tumour) [15]: 0

Compound: CCC1(CC)C(=O)NCC(C)C1=O (stereo not given) [METHYPRYLON]
- Hepatotoxicity (moderate) [1]: 0%
- Hepatotoxicity (acute) [2]: 0%
- Hepatotoxicity (mechanism) [3]: Dose-dependant
- Hepatotoxicity (moderate) [4]: 1
- Hepatotoxicity (acute) [5]: 1
- Hepatotoxicity (cytolytic) [6]: 1
- Hepatotoxicity (choleostasis) [7]: 1
- Hepatotoxicity (severe hepatitis) [8]: 0
- Hepatotoxicity (chronic liver disease) [9]: 0
- Hepatotoxicity (cirrhosis) [10]: 0
- Hepatotoxicity (granulomatous hepatitis) [11]: 0
- Hepatotoxicity (association with vascular disease) [12]: 0
- Hepatotoxicity (steatosis) [13]: 0
- Hepatotoxicity (malignant tumour) [14]: 0
- Hepatotoxicity (benign tumour) [15]: 0
